Columns and labels:
[1] = target: T1, Acetylcholinesterase (Torpedo californica, UniProt P04058); test: In vitro binding affinity was determined against acetylcholinesterase from torpedo californica; design: species or system Tetronarce californica
[2] = target: T1, Acetylcholinesterase; test: In vitro anticholinesterase activity was determined against acetylcholinesterase from Torpedo californica; design: species or system Tetronarce californica

T1 sequence (P04058 whole entry): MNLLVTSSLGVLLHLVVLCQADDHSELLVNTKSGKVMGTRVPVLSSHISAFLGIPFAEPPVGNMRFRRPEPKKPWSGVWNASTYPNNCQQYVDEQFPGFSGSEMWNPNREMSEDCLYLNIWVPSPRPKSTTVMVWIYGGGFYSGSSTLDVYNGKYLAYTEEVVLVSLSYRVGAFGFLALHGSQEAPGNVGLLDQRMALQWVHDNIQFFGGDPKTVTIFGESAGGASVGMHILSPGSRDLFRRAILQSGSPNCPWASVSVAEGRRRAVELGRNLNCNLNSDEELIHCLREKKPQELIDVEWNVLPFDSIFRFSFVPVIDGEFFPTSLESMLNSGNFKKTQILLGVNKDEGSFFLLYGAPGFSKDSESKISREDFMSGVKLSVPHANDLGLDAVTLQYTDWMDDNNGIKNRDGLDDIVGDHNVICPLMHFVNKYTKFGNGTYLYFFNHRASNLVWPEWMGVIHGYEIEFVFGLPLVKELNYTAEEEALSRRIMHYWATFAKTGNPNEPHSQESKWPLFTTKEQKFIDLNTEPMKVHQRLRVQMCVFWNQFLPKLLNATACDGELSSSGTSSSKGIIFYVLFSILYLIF

Structure (SMILES)	Ki [1] [µM]	IC50 [2] [µM]
C/C(=C\C(=O)N[C@H]1CC[C@@]2(C)[C@@H](CC[C@@H]3[C@@H]2CC[C@]2(C)[C@@H]([C@H](C)N(C)C)CC[C@@H]32)C1)C(C)C	9.05	50.6
C/C(=C\C(=O)N(C)[C@H]1CC[C@@]2(C)[C@@H](CC[C@@H]3[C@@H]2CC[C@]2(C)[C@@H]([C@H](C)N(C)C)CC[C@@H]32)C1)C(C)C	4.1	–
CN[C@H]1CC[C@@]2(C)[C@@H](CC[C@@H]3[C@@H]2CC[C@]2(C)[C@@H]([C@H](C)N(C)C(C)=O)CC[C@@H]32)C1	216	204
C[C@@H]([C@H]1CC[C@H]2[C@@H]3CC[C@H]4C[C@@H](NC(=O)c5ccccc5)[C@@H](O)C[C@]4(C)[C@H]3CC[C@]12C)N(C)C	–	78.2
CC(=O)O[C@H]1[C@@H](NC(=O)C=C(C)C)CC[C@]2(C)[C@H]3CC[C@]4(C)[C@@H]([C@H](C)N(C)C)CC[C@H]4[C@@H]3CC[C@@H]12	17.6	8.5
CC(=O)O[C@H]1[C@@H](NC(=O)c2ccccc2)[C@@H](O)C[C@]2(C)[C@H]3CC[C@]4(C)[C@@H]([C@H](C)N(C)C)CC[C@H]4[C@@H]3CC[C@@H]12	126	228
C/C=C(\C)C(=O)N[C@H]1CC[C@@]2(C)C(=CC[C@H]3C4=CC[C@H]([C@H](C)N(C)C)[C@@]4(C)CC[C@@H]32)C1=O	2.65	–
C/C=C(\C)C(=O)N[C@@H]1[C@H](OC(C)=O)[C@@H]2CC[C@@H]3[C@H](CC[C@]4(C)[C@@H]([C@H](C)N(C)C)CC[C@@H]34)[C@@]2(C)C[C@@H]1O	–	182
C/C=C(\C)C(=O)N[C@@H]1[C@H](OC(C)=O)[C@@H]2CC[C@H]3C4=CC[C@H]([C@H](C)N(C)C)[C@@]4(C)CC[C@@H]3[C@@]2(C)C[C@@H]1O	134	61.3
C/C(=C\C(=O)N(C)[C@H]1CC[C@@]2(C)[C@@H](CC[C@@H]3[C@@H]2CC[C@]2(C)C([C@H](C)N(C)C)=CC[C@@H]32)C1)C(C)C	10.7	6.2
C[C@@H]([C@H]1CC[C@H]2[C@@H]3CC[C@H]4C[C@@H](N(C)C(=O)/C=C/c5ccccc5)CC[C@]4(C)[C@H]3CC[C@]12C)N(C)C [SALIGCINNAMIDE]	12.2	19.9
C/C=C(\C)C(=O)N[C@@H]1C=C2CC[C@@H]3[C@H](CC[C@]4(C)C([C@H](C)N(C)C)=CC[C@@H]34)[C@@]2(C)C[C@H]1O	–	185
C/C=C(\C)C(=O)N[C@H]1CC[C@@]2(C)C(=CC[C@H]3[C@@H]4CC[C@H]([C@H](C)N(C)C)[C@@]4(C)CC[C@@H]32)C1=O	5.4	7.1
CC(=O)N[C@H]1CC[C@@]2(C)[C@@H](CC[C@@H]3[C@@H]2CC[C@]2(C)[C@@H]([C@H](C)N(C)C)CC[C@@H]32)C1	90.3	69.9
C[C@@H]([C@H]1CC[C@H]2[C@@H]3CC[C@H]4C(=O)C(NC(=O)c5ccccc5)=CC[C@]4(C)[C@H]3CC[C@]12C)N(C)C	3.03	5.2

From ChEMBL document CHEMBL1145898, “Molecular docking studies of natural cholinesterase-inhibiting steroidal alkaloids from Sarcococca saligna” (J Med Chem, 2003)
